# Assays:
# LoVo-Dox = test: Inhibition of cells growth by colorimetric (SRB) assay, LoVo-Dox; conditions: for GI50 / CC50: Homo sapiens, 48 h; for GI50: read-out: GI50 LOVO-DOX, SRB assay, 48 hours exposure; for CC50: read-out: LC50 LOVO-DOX, SRB assay, 48 hours exposure; for TGI LOVO-DOX: SRB assay, 48 hours exposure
# In short: (§1)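 Human tumour cells seeded at 5×10^3/well in RPMI 1640 10% FBS, attached 18 h, then exposed 48 h to samples at 10 to 10^−8 μg/ml in DMSO/EtOH/PBS (0.5:0.5:99). Growth read by SRB staining after TCA fixation, OD 490 nm, triplicate wells; GI, TGI and LC derived.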
# HMEC1 = test: Inhibition of cells growth by colorimetric (SRB) assay, HMEC1; conditions: for GI50: Homo sapiens, HMEC-1, 48 h, read-out: GI50 H-MEC-1, SRB assay, 48 hours exposure; for TGI H-MEC-1: SRB assay, 48 hours exposure, in M (unit assumed)
# [1] = as above; conditions: human, HMEC1 cells, LC50 H-MEC-1, SRB assay, 48 hours exposure
# DU-145 = test: Inhibition of cells growth by colorimetric (SRB) assay, DU-145; conditions: for GI50 / CC50: Homo sapiens, DU-145, 48 h; for GI50: read-out: GI50 DU-145, SRB assay, 48 hours exposure; for CC50: read-out: LC50 DU-145, SRB assay, 48 hours exposure; for TGI DU-145: SRB assay, 48 hours exposure
# In short: as §1
# LNCaP = test: Inhibition of cells growth by colorimetric (SRB) assay, LNCaP; conditions: for GI50 / CC50: Homo sapiens, LNCaP, 48 h; for GI50: read-out: GI50 LN-caP, SRB assay, 48 hours exposure; for CC50: read-out: LC50 LN-caP, SRB assay, 48 hours exposure; for TGI LN-caP: SRB assay, 48 hours exposure
# In short: as §1
# A-549 = test: Inhibition of cells growth by colorimetric (SRB) assay, A-549; conditions: for GI50 / CC50: Homo sapiens, A549, 48 h; for GI50: read-out: GI50 A-549, SRB assay, 48 hours exposure; for CC50: read-out: LC50 A-549, SRB assay, 48 hours exposure; for TGI A-549: SRB assay, 48 hours exposure
# In short: as §1
# SK-OV-3 = test: Inhibition of cells growth by colorimetric (SRB) assay, SK-OV-3; conditions: for GI50 / CC50: Homo sapiens, SK-OV-3, 48 h; for GI50: read-out: GI50 SKOV-3, SRB assay, 48 hours exposure; for CC50: read-out: LC50 SKOV-3, SRB assay, 48 hours exposure; for TGI SKOV-3: SRB assay, 48 hours exposure
# In short: as §1
# SK-MEL-28 = test: Inhibition of cells growth by colorimetric (SRB) assay, SK-MEL-28; conditions: for GI50 / CC50: Homo sapiens, SK-MEL-28, 48 h; for GI50: read-out: GI50 MEL-28, SRB assay, 48 hours exposure; for CC50: read-out: LC50 MEL-28, SRB assay, 48 hours exposure; for TGI MEL-28: SRB assay, 48 hours exposure
# In short: as §1
# LoVo = test: Inhibition of cells growth by colorimetric (SRB) assay, LoVo; conditions: for GI50 / CC50: Homo sapiens, LoVo, 48 h; for GI50: read-out: GI50 LOVO, SRB assay, 48 hours exposure; for CC50: read-out: LC50 LOVO, SRB assay, 48 hours exposure; for TGI LOVO: SRB assay, 48 hours exposure
# In short: as §1
# IGROV-1 = test: Inhibition of cells growth by colorimetric (SRB) assay, IGROV-1; conditions: for GI50 / CC50: Homo sapiens, IGROV-1, 48 h; for GI50: read-out: GI50 IGROV, SRB assay, 48 hours exposure; for CC50: read-out: LC50 IGROV, SRB assay, 48 hours exposure; for TGI IGROV: SRB assay, 48 hours exposure
# In short: as §1
# K-562 = test: Inhibition of cells growth by colorimetric (SRB) assay, K-562; conditions: for GI50 / CC50: Homo sapiens, K562, 48 h; for GI50: read-out: GI50 K-562, SRB assay, 48 hours exposure; for CC50: read-out: LC50 K-562, SRB assay, 48 hours exposure; for TGI K-562: SRB assay, 48 hours exposure
# In short: as §1
# HT-29 = test: Inhibition of cells growth by colorimetric (SRB) assay, HT-29; conditions: for GI50 / CC50: Homo sapiens, HT-29, 48 h; for GI50: read-out: GI50 HT-29, SRB assay, 48 hours exposure; for CC50: read-out: LC50 HT-29, SRB assay, 48 hours exposure; for TGI HT-29: SRB assay, 48 hours exposure
# In short: as §1
# PANC-1 = test: Inhibition of cells growth by colorimetric (SRB) assay, PANC-1; conditions: for GI50 / CC50: Homo sapiens, PANC-1, 48 h; for GI50: read-out: GI50 PANC-1, SRB assay, 48 hours exposure; for CC50: read-out: LC50 PANC-1, SRB assay, 48 hours exposure; for TGI PANC-1: SRB assay, 48 hours exposure
# In short: as §1
# IGROV-ET = test: Inhibition of cells growth by colorimetric (SRB) assay, IGROV-ET; conditions: for GI50 / CC50: Homo sapiens, 48 h; for GI50: read-out: GI50 IGROV-ET, SRB assay, 48 hours exposure; for CC50: read-out: LC50 IGROV-ET, SRB assay, 48 hours exposure; for TGI IGROV-ET: SRB assay, 48 hours exposure
# In short: as §1
# SK-BR-3 = test: Inhibition of cells growth by colorimetric (SRB) assay, SK-BR-3; conditions: for GI50 / CC50: Homo sapiens, SK-BR-3, 48 h; for GI50: read-out: GI50 SK-BR-3, SRB assay, 48 hours exposure; for CC50: read-out: LC50 SK-BR-3, SRB assay, 48 hours exposure; for TGI SK-BR-3: SRB assay, 48 hours exposure
# In short: as §1
smiles,measurement,setting,value
Nc1nccc(-c2c3cc(Cl)cnc3n3c(N)nccc23)n1 [Compound 49],GI50,LoVo-Dox,2.11 µM
same,CC50,LoVo-Dox,27.6 µM
same,TGI LOVO-DOX,LoVo-Dox,7.86E−06
same,GI50,HMEC1,0.456 µM
same,TGI H-MEC-1,HMEC1,4.59E−06
same,CC50 at 48 h,[1],8.73 µM
same,GI50,DU-145,5.33 µM
same,CC50,DU-145,32.1 µM
same,TGI DU-145,DU-145,1.38E−05
same,GI50,LNCaP,1.26 µM
same,CC50,LNCaP,19.5 µM
same,TGI LN-caP,LNCaP,4.30E−06
same,GI50,A-549,2.11 µM
same,CC50,A-549,32.1 µM
same,TGI A-549,A-549,9.21E−06
same,GI50,SK-OV-3,5.42 µM
same,CC50,SK-OV-3,32.1 µM
same,TGI SKOV-3,SK-OV-3,1.50E−05
same,GI50,SK-MEL-28,6.35 µM
same,CC50,SK-MEL-28,32.1 µM
same,TGI MEL-28,SK-MEL-28,1.43E−05
same,GI50,LoVo,2.37 µM
same,CC50,LoVo,32.1 µM
same,TGI LOVO,LoVo,1.16E−05
same,GI50,IGROV-1,4.68 µM
same,CC50,IGROV-1,29.3 µM
same,TGI IGROV,IGROV-1,1.17E−05
same,GI50,K-562,13.9 µM
same,CC50,K-562,32.1 µM
same,TGI K-562,K-562,2.77E−05
same,GI50,HT-29,12 µM
same,CC50,HT-29,32.1 µM
same,TGI HT-29,HT-29,3.21E−05
same,GI50,PANC-1,10.7 µM
same,CC50,PANC-1,32.1 µM
same,TGI PANC-1,PANC-1,3.21E−05
same,GI50,IGROV-ET,4.23 µM
same,CC50,IGROV-ET,32.1 µM
same,TGI IGROV-ET,IGROV-ET,1.20E−05
same,GI50,SK-BR-3,7.19 µM
same,CC50,SK-BR-3,32.1 µM
same,TGI SK-BR-3,SK-BR-3,1.86E−05
CSc1nccc2c(-c3cccs3)c3cccnc3n12 [Compound 60],GI50,LoVo-Dox,≥ 33.6 µM
same,CC50,LoVo-Dox,≥ 33.6 µM
same,TGI LOVO-DOX,LoVo-Dox,3.36E−05
same,GI50,HMEC1,22.6 µM
same,TGI H-MEC-1,HMEC1,3.36E−05
same,CC50 at 48 h,[1],≥ 33.6 µM
same,GI50,DU-145,≥ 33.6 µM
same,CC50,DU-145,≥ 33.6 µM
same,TGI DU-145,DU-145,3.36E−05
same,GI50,LNCaP,≥ 33.6 µM
same,CC50,LNCaP,≥ 33.6 µM
same,TGI LN-caP,LNCaP,3.36E−05
same,GI50,A-549,22.6 µM
same,CC50,A-549,≥ 33.6 µM
same,TGI A-549,A-549,3.36E−05
same,GI50,SK-OV-3,≥ 33.6 µM
same,CC50,SK-OV-3,≥ 33.6 µM
same,TGI SKOV-3,SK-OV-3,3.36E−05
same,GI50,SK-MEL-28,≥ 33.6 µM
same,CC50,SK-MEL-28,≥ 33.6 µM
same,TGI MEL-28,SK-MEL-28,3.36E−05
same,GI50,LoVo,≥ 33.6 µM
same,CC50,LoVo,≥ 33.6 µM
same,TGI LOVO,LoVo,3.36E−05
same,GI50,IGROV-1,10.8 µM
same,CC50,IGROV-1,≥ 33.6 µM
same,TGI IGROV,IGROV-1,3.36E−05
same,GI50,K-562,≥ 33.6 µM
same,CC50,K-562,≥ 33.6 µM
same,TGI K-562,K-562,3.36E−05
same,GI50,HT-29,≥ 33.6 µM
same,CC50,HT-29,≥ 33.6 µM
same,TGI HT-29,HT-29,3.36E−05
same,GI50,PANC-1,≥ 33.6 µM
same,CC50,PANC-1,≥ 33.6 µM
same,TGI PANC-1,PANC-1,3.36E−05
same,GI50,IGROV-ET,≥ 33.6 µM
same,CC50,IGROV-ET,≥ 33.6 µM
same,TGI IGROV-ET,IGROV-ET,3.36E−05
same,GI50,SK-BR-3,0.24 µM
same,CC50,SK-BR-3,3.36 µM
same,TGI SK-BR-3,SK-BR-3,9.95E−07

# — patent publication US7772241B2, “Variolin derivatives and their use as antitumor agents” (Pharma Mar S.A., priority 2001, dated 2010)
